Test results as given in ChEMBL document CHEMBL3045111, “Synthesis and herbicidal activities of novel 3-(substituted benzyloxy or phenoxy)-6-methyl-4-(3-trifluoromethylphenyl)pyridazine derivatives” (2012).

What was measured:
Format in all cases: functional
Echinochloa crus-galli [1] = assay: Post-emergence herbicidal activity against one-leaf stage of Echinochloa crus-galli (barnyard grass) under greenhouse condition at 750 g /ha measured after 24 days by spray method; details: 576 h, read-out: GI
Spirodela polyrhiza [2] = assay: Bleaching herbicidal activity in Spirodela polyrhiza fronds cultured in compound-containing in medium assessed as chlorophyll inhibition at 10 ug/ml after 7 days; details: 168 h
Amaranthus retroflexus [3] = assay: Pre-emergence herbicidal activity against Amaranthus retroflexus under greenhouse condition at 750 g /ha measured after 24 days by spray method; details: 576 h, read-out: GI
Spirodela polyrhiza [4] = assay: Bleaching herbicidal activity in Spirodela polyrhiza fronds cultured in compound-containing in medium assessed as chlorophyll inhibition at 1 ug/ml after 7 days; details: 168 h
[5] = tested on: Brassica rapa subsp. oleifera; assay: Pre-emergence herbicidal activity against Brassica rapa subsp. oleifera under greenhouse condition at 750 g /ha measured after 24 days by spray method; details: 576 h, read-out: GI
Digitaria [6] = assay: Pre-emergence herbicidal activity against Digitaria adscendens under greenhouse condition at 750 g /ha measured after 24 days by spray method; details: in Digitaria adscendens, 576 h, read-out: GI
Digitaria [7] = assay: Post-emergence herbicidal activity against one-leaf stage of Digitaria adscendens under greenhouse condition at 750 g /ha measured after 24 days by spray method; details: in Digitaria adscendens, 576 h, read-out: GI
Echinochloa crus-galli [8] = assay: Pre-emergence herbicidal activity against Echinochloa crus-galli (barnyard grass) under greenhouse condition at 750 g /ha measured after 24 days by spray method; details: 576 h, read-out: GI
Amaranthus retroflexus [9] = assay: Post-emergence herbicidal activity against one-leaf stage of Amaranthus retroflexus under greenhouse condition at 750 g /ha measured after 24 days by spray method; details: 576 h, read-out: GI
[10] = tested on: Brassica rapa subsp. oleifera; assay: Post-emergence herbicidal activity against one-leaf stage Brassica rapa subsp. oleifera under greenhouse condition at 750 g /ha measured after 24 days by spray method; details: 576 h, read-out: GI

SMILES	inhibition of growth at 750 g/ha (Echinochloa crus-galli [1]) [%]	inhibition at 10 µg/mL (Spirodela polyrhiza [2]) [%]	inhibition of growth at 750 g/ha (Amaranthus retroflexus [3]) [%]	inhibition at 1 µg/mL (Spirodela polyrhiza [4]) [%]	inhibition of growth at 750 g/ha [5] [%]	inhibition of growth at 750 g/ha (Digitaria [6]) [%]	inhibition of growth at 750 g/ha (Digitaria [7]) [%]	inhibition of growth at 750 g/ha (Echinochloa crus-galli [8]) [%]	inhibition of growth at 750 g/ha (Amaranthus retroflexus [9]) [%]	inhibition of growth at 750 g/ha [10] [%]
Cc1cc(-c2cccc(C(F)(F)F)c2)c(OCc2c(Cl)cccc2Cl)nn1	4	26	15	4	2	41	0	1	34	20
Cc1cc(-c2cccc(C(F)(F)F)c2)c(OCc2cccc(Cl)c2)nn1	0	45	18	29	0	2	0	36	31	33
Cc1cc(-c2cccc(C(F)(F)F)c2)c(OCc2ccc(F)cc2)nn1	2	87	8	76	8	0	56	24	41	87
COc1cccc(COc2nnc(C)cc2-c2cccc(C(F)(F)F)c2)c1	5	23	0	5	0	0	0	20	12	9
Cc1cc(-c2cccc(C(F)(F)F)c2)c(Oc2ccccc2C(F)(F)F)nn1	12	37	0	32	10	0	0	11	3	46
COc1ccc(COc2nnc(C)cc2-c2cccc(C(F)(F)F)c2)cc1	0	72	0	0	0	48	20	39	16	13
Cc1cc(-c2cccc(C(F)(F)F)c2)c(OCc2ccc(N(C)C)cc2)nn1	0	97	11	64	4	6	11	17	21	7
Cc1cc(-c2cccc(C(F)(F)F)c2)c(Oc2ccccc2F)nn1	5	66	23	63	4	11	16	6	73	69
Cc1cc(-c2cccc(C(F)(F)F)c2)c(OCc2ccc(Br)cc2)nn1	15	27	0	14	0	0	0	4	23	20
Cc1cc(-c2cccc(C(F)(F)F)c2)c(OCc2ccc(Cl)cc2)nn1	0	66	9	53	17	6	0	21	45	72
Cc1cc(-c2cccc(C(F)(F)F)c2)c(Oc2cccc(Cl)c2)nn1	57	72	0	72	11	7	74	6	63	100
Cc1cc(-c2cccc(C(F)(F)F)c2)c(Oc2ccccc2Br)nn1	30	78	0	0	0	7	21	0	0	34
Cc1cc(-c2cccc(C(F)(F)F)c2)c(Oc2ccccc2C)nn1	24	73	0	8	0	7	11	0	50	55
Cc1ccc(Oc2nnc(C)cc2-c2cccc(C(F)(F)F)c2)c(C)c1	18	41	0	0	0	0	19	15	64	45
Cc1cc(C)cc(COc2nnc(C)cc2-c2cccc(C(F)(F)F)c2)c1	11	71	2	0	0	0	24	1	10	36
Cc1cc(-c2cccc(C(F)(F)F)c2)c(Oc2ccccc2-c2ccccc2)nn1	0	33	18	29	0	0	0	0	25	0
Cc1cc(-c2cccc(C(F)(F)F)c2)c(Oc2ccc(C(C)(C)C)cc2)nn1	33	35	0	0	1	4	0	0	38	44
COc1ccccc1COc1nnc(C)cc1-c1cccc(C(F)(F)F)c1	1	72	0	18	0	33	10	0	25	16
Cc1cc(-c2cccc(C(F)(F)F)c2)c(OCc2ccccc2F)nn1	19	71	4	65	28	10	0	13	39	79
Cc1cc(-c2cccc(C(F)(F)F)c2)c(OCc2ccc(Cl)cc2Cl)nn1	0	44	3	38	2	0	0	18	35	43
Cc1cc(-c2cccc(C(F)(F)F)c2)c(Oc2c(C)cccc2C)nn1	0	9	19	8	0	13	0	2	34	0
Cc1cccc(COc2nnc(C)cc2-c2cccc(C(F)(F)F)c2)c1	0	46	0	43	0	0	0	10	22	13
